Our source for the IC50 values is patent publication US20240217978A1 (CHONG KUN DANG PHARMACEUTICAL CORP., priority 2021, published 2024).

For the experiment, the target named is human adenosine A2a receptor (Homo sapiens (Human), UniProt P29274). Description: A2a receptor binding affinity, [3H]-NECA radioligand binding test. The conditions noted are these: [3H]-NECA 37 nM; membrane from HEK-293 cells transfected with human adenosine A2a receptor. Put shortly:
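IC50 values (μM) come from displacement of [3H]-NECA, used at 37 nM final, on human A2a receptor membranes from transfected HEK-293 cells. Incubation lasted one hour at room temperature in Tris/MgCl2/EDTA buffer, pH 7.4; filter-bound radioactivity was counted by scintillation.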

Chain of human adenosine A2a receptor (P29274 whole entry): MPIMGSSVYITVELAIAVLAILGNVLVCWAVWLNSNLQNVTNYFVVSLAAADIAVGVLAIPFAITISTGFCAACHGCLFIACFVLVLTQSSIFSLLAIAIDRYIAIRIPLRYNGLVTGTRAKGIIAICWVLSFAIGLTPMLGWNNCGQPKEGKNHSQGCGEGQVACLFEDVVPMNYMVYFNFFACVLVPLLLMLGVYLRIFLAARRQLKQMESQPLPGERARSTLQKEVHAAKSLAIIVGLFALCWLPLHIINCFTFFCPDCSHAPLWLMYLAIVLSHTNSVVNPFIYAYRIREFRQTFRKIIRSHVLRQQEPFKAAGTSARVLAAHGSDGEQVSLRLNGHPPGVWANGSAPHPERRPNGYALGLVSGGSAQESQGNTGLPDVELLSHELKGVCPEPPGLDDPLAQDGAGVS

A word on the IC50: it is the point on the concentration scale where inhibition reaches its midpoint. A high value points to a need for much substance. Consider `CC(C)C[C@H](Nc1nc(N)n2nc(-c3ccco3)nc2n1)C(=O)N1CCN(c2ccc(F)cc2F)CC1` [Example 167, (S)-2-((7-amino-2-(furan-2-yl)-[1,2,4]triazolo[1,5-a][1,3,5]triazin-5-yl)amino)-1-(4-(2,4-difluorophenyl)piperazin-1-yl)-4-methylpentan-1-one], for which the IC50 was found to be 0.2 nM. Regarding `CC(C)(F)CN1CCC(C2CCN(C(=O)[C@@H]3CCN3c3nc(N)n4nc(-c5ccco5)nc4n3)CC2)CC1` [Example 322, (S)-(1-(7-amino-2-(furan-2-yl)-[1,2,4]triazolo[1,5-a][1,3,5]triazin-5-yl)azetidin-2-yl)(1′-(2-fluoro-2-methylpropyl)-[4,4′-bipiperidin]-1-yl) methanone], the IC50 worked out at 6 nM.

On to `C[C@H](Nc1nc(N)n2nc(-c3ccco3)nc2n1)C(=O)N1CCN(CC(F)(F)F)CC1` [Example 25, (S)-2-((7-amino-2-(furan-2-yl)-[1,2,4]triazolo[1,5-a][1,3,5]triazin-5-yl)amino)-1-(4-(2,2,2-trifluoroethyl)piperazin-1-yl)propan-1-one], for which the IC50 came to 10 nM. Compared with the last molecule, the IC50 is about 1.7-fold higher. For `Nc1nc(N2CCC[C@H]2C(=O)N2CCC(C(=O)Nc3ccccc3)CC2)nc2nc(-c3ccco3)nn12` [Example 78, 1-((7-amino-2-(furan-2-yl)-[1,2,4]triazolo[1,5-a][1,3,5]triazin-5-yl)-L-prolyl)-N-phenylpiperidin-4-carboxamide] the value was 14 nM; for `Cc1ccc(-c2nc3nc(N4CCC[C@H]4C(=O)N4CCC(C5CCN(CC(F)(F)F)CC5)CC4)nc(N)n3n2)o1` [Example 197, (S)-(1-(7-amino-2-(5-methylfuran-2-yl)-[1,2,4]triazolo[1,5-a][1,3,5]triazin-5-yl)pyrrolidin-2-yl)(1′-(2,2,2-trifluoroethyl)-[4,4′-bipiperidin]-1-yl)methanone], 3 nM; for `CC(C)(C(=O)N1CCN(C(=O)[C@@H]2CCCN2c2nc(N)n3nc(-c4ccco4)nc3n2)CC1)C(F)(F)F` [Example 86, 1-(4-((7-amino-2-(furan-2-yl)-[1,2,4]triazolo[1,5-a][1,3,5]triazin-5-yl)-L-prolyl)piperazin-1-yl)-3,3,3-trifluoro-2,2-dimethylpropan-1-one], 15 nM. Next, `Nc1nc(N2CCC[C@H]2C(=O)N2CCC(C(=O)Nc3cnccn3)CC2)nc2nc(-c3ccco3)nn12` [Example 80, 1-((7-amino-2-(furan-2-yl)-[1,2,4]triazolo[1,5-a][1,3,5]triazin-5-yl)-L-prolyl)-N-(pyrazin-2-yl)piperidin-4-carboxamide]: 7 nM; `C[C@@H]1CN(CC(C)(C)O)CCN1C(=O)[C@@H]1CCCN1c1nc(N)n2nc(-c3ccco3)nc2n1` [Example 373, ((S)-1-(7-amino-2-(furan-2-yl)-[1,2,4]triazolo[1,5-a][1,3,5]triazin-5-yl)pyrrolidin-2-yl)((R)-4-(2-hydroxy-2-methylpropyl)-2-methylpiperazin-1-yl)methanone]: 2 nM. In the case of `Nc1nc(N2CCC[C@H]2C(=O)N2CCN(c3ccc(F)cc3F)CC2)nc2nc(-c3nccs3)nn12` [Example 67, (S)-(1-(7-amino-2-(thiazol-2-yl)-[1,2,4]triazolo[1,5-a][1,3,5]triazin-5-yl)pyrrolidin-2-yl)(4-(2,4-difluorophenyl)piperazin-1-yl)methanone], the IC50 came to 3 nM. For `CC[C@H](Nc1nc(N)n2nc(-c3ccco3)nc2n1)C(=O)N1CCN(CC(C)(F)F)CC1` [Example 356, (S)-2-((7-amino-2-(furan-2-yl)-[1,2,4]triazolo[1,5-a][1,3,5]triazin-5-yl)amino)-1-(4-(2,2-difluoropropyl)piperazin-1-yl)butan-1-one] the value was 10 nM; for `C[C@@H]1CN(CC(F)F)CCN1C(=O)[C@@H]1CCCN1c1nc(N)n2nc(-c3ccco3)nc2n1` [Example 371, ((S)-1-(7-amino-2-(furan-2-yl)-[1,2,4]triazolo[1,5-a][1,3,5]triazin-5-yl)pyrrolidin-2-yl)((R)-4-(2,2-difluoroethyl)-2-methylpiperazin-1-yl)methanone], 11 nM; for `CCCCN1CCN(C(=O)[C@@H](Nc2nc(N)n3nc(-c4ccco4)nc3n2)C2CCCCC2)CC1` [Example 187, (S)-2-((7-amino-2-(furan-2-yl)-[1,2,4]triazolo[1,5-a][1,3,5]triazin-5-yl)amino)-1-(4-butylpiperazin-1-yl)-2-cyclohexylethan-1-one], 10 nM.

As for `Nc1nc(N2CC3(CC3)C[C@H]2C(=O)N2CCN(CC(F)(F)F)CC2)nc2nc(-c3ccco3)nn12` [Example 385, (S)-(5-(7-amino-2-(furan-2-yl)-[1,2,4]triazolo[1,5-a][1,3,5]triazin-5-yl)-5-azaspiro[2.4]heptan-6-yl)(4-(2,2,2-trifluoroethyl)piperazin-1-yl)methanone], the IC50 is 0.8 nM.

For the molecule `Nc1nc(N[C@H](C(=O)N2CCC(N3CC(F)(F)C3)CC2)C2CCCCC2)nc2nc(-c3ccco3)nn12` [Example 186, (S)-2-((7-amino-2-(furan-2-yl)-[1,2,4]triazolo[1,5-a][1,3,5]triazin-5-yl)amino)-2-cyclohexyl-1-(4-(3,3-difluoroazetidin-1-yl)piperidin-1-yl)ethan-1-one], the IC50 was determined as 9 nM. For `C[C@H](Nc1nc(N)n2nc(-c3ccco3)nc2n1)C(=O)N1CCN(CC(F)(F)C(F)(F)F)CC1` [Example 319, (S)-2-((7-amino-2-(furan-2-yl)-[1,2,4]triazolo[1,5-a][1,3,5]triazin-5-yl)amino)-1-(4-(2,2,3,3,3-pentafluoropropyl)piperazin-1-yl)propan-1-one] the value was 15 nM; for `Nc1nc(N2CCC[C@H]2C(=O)N2CCN(C3CCC3)CC2)nc2nc(-c3ccco3)nn12` [Example 392, (S)-(1-(7-amino-2-(furan-2-yl)-[1,2,4]triazolo[1,5-a][1,3,5]triazin-5-yl)pyrrolidin-2-yl)(4-cyclobutylpiperazin-1-yl)methanone], 9 nM. In the case of `CN1CCN(C(=O)[C@@H]2CCCN2c2nc(N)n3nc(-c4ccco4)nc3n2)CC1` [Example 134, (S)-(1-(7-amino-2-(furan-2-yl)-[1,2,4]triazolo[1,5-a][1,3,5]triazin-5-yl)pyrrolidin-2-yl)(4-methylpiperazin-1-yl)methanone], the IC50 worked out at 86 nM. `Nc1nc(N2CCC[C@H]2C(=O)N2CCN(C(=O)C3(C(F)(F)F)CCC3)CC2)nc2nc(-c3ccco3)nn12` [Example 75] registered an IC50 of 9 nM. In turn, `CC1(C)C[C@@H](C(=O)N2CCN(CC(F)(F)F)CC2)N(c2nc(N)n3nc(-c4ccco4)nc3n2)C1` [Example 387, (S)-(1-(7-amino-2-(furan-2-yl)-[1,2,4]triazolo[1,5-a][1,3,5]triazin-5-yl)-4,4-dimethylpyrrolidin-2-yl)(4-(2,2,2-trifluoroethyl)piperazin-1-yl)methanone] yielded an IC50 of 1 nM.

Molecule `Nc1nc(N2CCC[C@H]2C(=O)N2CCN(Cc3ccccc3)CC2)nc2nc(-c3nccs3)nn12` [Example 193, (S)-(1-(7-amino-2-(thiazol-2-yl)-[1,2,4]triazolo[1,5-a][1,3,5]triazin-5-yl)pyrrolidin-2-yl)(4-benzylpiperazin-1-yl)methanone] had an IC50 of 10 nM.
